Results reported in publication PMC7450057, “Enhancing intracellular accumulation and target engagement of PROTACs with reversible covalent chemistry” (Nature Communications, 2020).
Several values for one entry are separate records, joined by “and”; a condition that tells them apart may be missing. Equal entries are not always repeated.

Assays:
full-length BTK protein = biological target: T1, full-length BTK protein (Homo sapiens, UniProt Q06187); test: BTK binding assay (Kd, Eurofins DiscoverX); settings: for Kd: full-length BTK, standard assay buffer in the presence of DTT (6 mM) (DiMe compounds: BTK_+DTT per Supplementary Data 1), duplicates
T1 construct: Kd was measured using the full-length BTK protein by Eurofins DiscoverX; T7 phage fusion or DNA tag for qPCR (generic vendor protocol); purchased Eurofins DiscoverX
T1 sequence (Q06187 whole entry, the tested form may be a part): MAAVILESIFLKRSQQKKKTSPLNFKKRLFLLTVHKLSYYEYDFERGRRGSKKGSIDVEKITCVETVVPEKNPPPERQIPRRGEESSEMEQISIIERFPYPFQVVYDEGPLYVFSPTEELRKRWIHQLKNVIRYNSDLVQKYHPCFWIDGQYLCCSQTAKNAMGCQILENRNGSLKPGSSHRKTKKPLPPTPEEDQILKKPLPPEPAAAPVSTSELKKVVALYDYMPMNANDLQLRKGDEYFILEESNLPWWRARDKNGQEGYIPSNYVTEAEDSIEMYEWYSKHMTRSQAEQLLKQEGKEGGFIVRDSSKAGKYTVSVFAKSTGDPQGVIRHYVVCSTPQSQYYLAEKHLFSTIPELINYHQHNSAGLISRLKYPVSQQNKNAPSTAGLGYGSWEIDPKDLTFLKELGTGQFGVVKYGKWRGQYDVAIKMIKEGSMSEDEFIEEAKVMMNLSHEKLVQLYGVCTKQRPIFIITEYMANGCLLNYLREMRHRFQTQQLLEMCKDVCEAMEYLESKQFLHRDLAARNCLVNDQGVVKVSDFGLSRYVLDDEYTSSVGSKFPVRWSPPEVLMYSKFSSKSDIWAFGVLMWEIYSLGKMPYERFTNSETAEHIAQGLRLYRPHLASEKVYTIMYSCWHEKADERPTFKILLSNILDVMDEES
Description: The dissociation equilibrium constant Kd was measured using the full-length BTK protein by Eurofins DiscoverX according to the following protocol: kinase-tagged T7 phage strains were prepared in an E. coli host derived from the BL21 strain. E. coli were grown to log-phase and infected with T7 phage and incubated with shaking at 32 °C until lysis. The lysates were centrifuged and filtered to remove cell debris. The remaining kinases were produced in HEK-293 cells and subsequently tagged with DNA for qPCR detection. […] The liganded beads were blocked with excess biotin and washed with blocking buffer (SeaBlock (Pierce), 1% BSA, 0.05% Tween 20, 1 mM DTT) to remove unbound ligand and to reduce non-specific binding. […] Test compounds were prepared as 111X stocks in 100% DMSO. […] The compounds were then diluted directly into the assays such that the final concentration of DMSO was 0.9%. All reactions performed in polypropylene 384-well plate. Each was a final volume of 0.02 mL. […] The kinase concentration in the eluates was measured by qPCR. For kinase-binding constant determination, an 11-point 3-fold serial dilution of each test compound was prepared in 100% DMSO at 100x final test concentration and subsequently diluted to 1x in the assay (final DMSO concentration = 1%). […] Binding constants (Kd values) were calculated with a standard dose-response curve using the Hill equation: Response=Background+Signal−Background/1+KdHillSlope/Dose^HillSlope
The Hill Slope was set to −1. Curves were fitted using a non-linear least square fit with the Levenberg-Marquardt algorithm.

BTK-NanoLuc fusion = biological target: T2, BTK-NanoLuc fusion (Homo sapiens, UniProt Q06187); test: NanoBRET BTK in-cell target engagement assay; format: cell-based; settings: for IC50: HEK-293 cells, BTK tracer 1.0 µM, Table 1 / Fig. 3c, triplicates, read-out: BTK TE IC50,TE; for K′P,D (relative intracellular accumulation coefficient): Kd (BTK)/IC50,TE (BTK); for intracellular accumulation of RC-1 relative to the compound: from K′P,D values, BTK (Table 1)
T2 construct: host or cells: HEK 293T/17
T2 sequence (Q06187 whole entry, the tested form may be a part): as above
Description: The target engagement assay for BTK or CRBN was from Promega (BTK kit, Cat. No. N2500; CRBN kit, Cat. No. CS1810C136) and was performed according to the manufacture’s instruction with some modifications. Briefly, HEK 293/T17 cells (ATCC) were transiently transfected with BTK-NanoLuc® fusion vector or NanoLuc®-CRBN fusion vector (Promega) in 0.125 M CaCl2 and 1x HBS. Forty-eight hours after transfection, the cells were resuspended in Opti-MEM medium (Life Technologies, Cat. No. 11058021) at the density of 2 × 10^5 cells per mL and were plated into 96-well plates (Corning, Cat. No. CLS3600). Cells were incubated with 1.0 µM (BTK) or 0.5 µM (CRBN) NanoBRET™ Tracer and serially diluted unlabeled BTK PROTAC compounds (from 10 to 0.0032 µM, 5-fold dilution) for 2 h at 37 °С with 5% CO2 in an incubator. After 2 h incubation, the 3X Nano-Glo® Substrate with NanoLuc® extracellular inhibitor were added to cells and developed for 3 min at room temperature. BRET signals were collected using a BioTek SYNERGY H1 microplate reader equipped with a 450/80-nm BP filter for donor emission and a 610-nm LP filter for acceptor emission. BRET Ratio was calculated with the equation: [(Acceptor sample/Donor sample)–(Acceptor no tracer control/Donor no tracer control)] × 1000. The IC50 of the compound against its BTK or CRBN tracer was calculated using GraphPad Prism software.

MOLM-14 cells = test: AlamarBlue cell viability assay, MOLM-14; settings: Supplementary Figure 7, replicates
Description: The IC50 was calculated using GraphPad Prism software with a four-parameter dose-response curve fit.

Kd (full-length BTK protein) [µM] | IC50 (BTK-NanoLuc fusion) [µM] | K′P,D (relative intracellular accumulation coefficient) (BTK-NanoLuc fusion) | intracellular accumulation of RC-1 relative to the compound (BTK-NanoLuc fusion) [folds] | SMILES | Cell viability, MOML-14 (MOLM-14 cells; drug concentration 1.00E-05 M) | Cell viability, MOML-14 (MOLM-14 cells; drug concentration 1.60E-08 M) | Cell viability, MOML-14 (MOLM-14 cells; drug concentration 2.00E-06 M) | Cell viability, MOML-14 (MOLM-14 cells; drug concentration 3.20E-09 M) | Cell viability, MOML-14 (MOLM-14 cells; drug concentration 4.00E-07 M) | Cell viability, MOML-14 (MOLM-14 cells; drug concentration 6.40E-10 M) | Cell viability, MOML-14 (MOLM-14 cells; drug concentration 8.00E-08 M) | further results
0.011 | 0.38 | 2.9 × 10^−2 | 5 | CN(CCCNC(=O)CNc1cccc2c1C(=O)N(C1CCC(=O)NC1=O)C2=O)C(C)(C)/C=C/C(=O)N1CCC[C@@H](n2nc(-c3ccc(Oc4ccccc4)cc3)c3c(N)ncnc32)C1 (stereo partly shown) [IRC-1-DiMe] | – | – | – | – | – | – | – | Signal (full-length BTK protein; BTK_+DTT, compound concentration 0.0169 nM, listed as IRC-DiMe): 3.35E-05 and 3.58E-05; Signal (full-length BTK protein; BTK_+DTT, compound concentration 0.152 nM, listed as IRC-DiMe): 3.30E-05 and 3.12E-05; Signal (full-length BTK protein; BTK_+DTT, compound concentration 0.457 nM, listed as IRC-DiMe): 3.59E-05 and 3.58E-05; Signal (full-length BTK protein; BTK_+DTT, compound concentration 1.37 nM, listed as IRC-DiMe): 2.65E-05 and 2.79E-05; Signal (full-length BTK protein; BTK_+DTT, compound concentration 4.12 nM, listed as IRC-DiMe): 2.70E-05 and 2.48E-05; Signal (full-length BTK protein; BTK_+DTT, compound concentration 12.3 nM): 1.55E-05; Signal (full-length BTK protein; BTK_+DTT, compound concentration 37 nM, listed as IRC-DiMe): 6.57E-06 and 5.81E-06; Signal (full-length BTK protein; BTK_+DTT, compound concentration 111 nM, listed as IRC-DiMe): 1.60E-06 and 1.57E-06; Signal (full-length BTK protein; BTK_+DTT, compound concentration 333 nM, listed as IRC-DiMe): 2.79E-07 and 2.98E-07; Signal (full-length BTK protein; BTK_+DTT, compound concentration 1000 nM, listed as IRC-DiMe): 9.10E-08 and 8.06E-08; Signal (full-length BTK protein; BTK_-DTT, compound concentration 12.3 nM): 1.59E-05
– | – | – | – | CN(C/C=C/C(=O)N1CCC[C@@H](n2nc(-c3ccc(Oc4ccccc4)cc3)c3c(N)ncnc32)C1)CCOCCNC(=O)CNc1cccc2c1C(=O)N(C1CCC(=O)NC1=O)C2=O (stereo partly shown) [IRC-3] | 33.9254 and 29.7755 and 25.5011 and 24.5466 and 23.5092 | 86.2431 and 93.4971 and 75.2168 and 81.4209 and 78.2878 | 87.4798 and 73.7851 and 74.2831 and 71.2537 and 90.0734 | 87.9238 and 88.7455 and 83.4544 and 84.1599 and 82.3547 | 86.2555 and 86.2763 and 83.0809 and 75.6111 and 85.2388 | 91.0487 and 98.1035 and 82.7281 and 78.682 and 82.9771 | 83.1182 and 78.35 (2×) and 67.9338 and 81.6492 | –
– | – | – | – | CN(C/C=C/C(=O)N1CCC[C@@H](n2nc(-c3ccc(Oc4ccccc4)cc3)c3c(N)ncnc32)C1)CCOCCNC(=O)CNc1ccc2c(c1)C(=O)N(C1CCC(=O)NC1=O)C2=O (stereo partly shown) [IRC-10] | 75.82 and 58.3378 and 68.0769 and 46.8499 and 54.5004 | 97.1244 and 98.6788 and 78.5933 and 90.154 and 64.4582 | 114.76 and 85.758 and 93.5542 and 68.0284 and 77.3303 | 99.6503 and 95.7157 and 83.0135 and 73.4201 and 68.8541 | 101.229 and 92.1212 and 88.8668 and 84.1065 and 86.0252 | 105.091 and 113.591 and 102.055 and 78.059 and 83.1593 | 111.6 and 85.6366 and 80.0019 and 73.9301 and 92.4127 | –
0.029 | 0.93 | 3.1 × 10^−2 | 5 | CN(CCCNC(=O)CNc1cccc2c1C(=O)N(C1CCC(=O)NC1=O)C2=O)C(C)(C)CC(C#N)C(=O)N1CCC[C@@H](n2nc(-c3ccc(Oc4ccccc4)cc3)c3c(N)ncnc32)C1 (stereo partly shown) [RNC-1-CN-DiMe] | – | – | – | – | – | – | – | Signal (full-length BTK protein; BTK_+DTT, compound concentration 0.0169 nM, listed as RNC-CN-DiMe): 2.50E-05 and 2.61E-05; Signal (full-length BTK protein; BTK_+DTT, compound concentration 0.152 nM): 3.53E-05; Signal (full-length BTK protein; BTK_+DTT, compound concentration 0.457 nM, listed as RNC-CN-DiMe): 3.21E-05 and 2.23E-05; Signal (full-length BTK protein; BTK_+DTT, compound concentration 1.37 nM, listed as RNC-CN-DiMe): 2.55E-05 and 2.14E-05; Signal (full-length BTK protein; BTK_+DTT, compound concentration 4.12 nM, listed as RNC-CN-DiMe): 2.68E-05 and 2.21E-05; Signal (full-length BTK protein; BTK_+DTT, compound concentration 12.3 nM, listed as RNC-CN-DiMe): 2.12E-05 and 1.99E-05; Signal (full-length BTK protein; BTK_+DTT, compound concentration 37 nM, listed as RNC-CN-DiMe): 1.30E-05 and 9.19E-06; Signal (full-length BTK protein; BTK_+DTT, compound concentration 111 nM, listed as RNC-CN-DiMe): 5.21E-06 and 4.55E-06; Signal (full-length BTK protein; BTK_+DTT, compound concentration 333 nM, listed as RNC-CN-DiMe): 1.18E-06 and 1.22E-06; Signal (full-length BTK protein; BTK_+DTT, compound concentration 1000 nM, listed as RNC-CN-DiMe): 2.41E-07 and 2.28E-07; Signal (full-length BTK protein; BTK_-DTT, compound concentration 0.152 nM): 2.77E-05
– | – | – | – | CN(CCCC(=O)N1CCC[C@@H](n2nc(-c3ccc(Oc4ccccc4)cc3)c3c(N)ncnc32)C1)CCOCCNC(=O)CNc1cccc2c1C(=O)N(C1CCC(=O)NC1=O)C2=O (stereo partly shown) [RNC-3] | 41.7673 and 39.1993 and 57.4163 and 48.1542 and 48.9004 | 96.7473 and 87.6169 and 107.151 and 102.3 and 127.409 | 75.1942 and 80.0887 and 89.5483 and 81.8665 and 89.4166 | 75.7649 and 76.4014 and 100.083 and 102.234 and 81.9543 | 62.3107 and 94.9036 and 99.6225 and 103.727 and 94.5305 | 107.063 and 96.7253 and 127.343 and 114.679 and 82.7444 | 77.6963 and 91.9187 and 116.522 and 86.0147 and 77.6085 | –
– | – | – | – | CN(CCCC(=O)N1CCC[C@@H](n2nc(-c3ccc(Oc4ccccc4)cc3)c3c(N)ncnc32)C1)CCOCCNC(=O)CNc1ccc2c(c1)C(=O)N(C1CCC(=O)NC1=O)C2=O (stereo partly shown) [RNC-10] | 20.4373 and 14.3566 and 19.5812 and 10.2077 and 15.081 | 105.787 and 111.889 and 72.4196 and 87.9176 and 69.5658 | 69.7853 and 58.8313 and 63.507 and 54.1116 and 44.6942 | 101.374 and 90.2665 and 79.5759 and 58.2825 and 70.4 | 94.3057 and 78.2807 and 83.198 and 62.2338 and 64.8242 | 98.3448 and 99.8376 and 85.8542 and 80.1905 and 70.3561 | 101.967 and 84.7346 and 87.9396 and 100.716 and 97.1814 | –
